Values of other authors, collected in patent US6959708B1, “Method for co-application of gases and drugs to potentiate their action in relieving headaches, angina and other ailments” (Capnia, Incorporated, priority 1999, dated 2005).
Where two headings read alike, the source gives them in different places.

Assays:
[1] = tested on: central and peripheral airways; details: asthmatic adults
[2] = tested on: serotonin-induced bronchial smooth muscle contraction
[3] = tested on: transpulmonary gradient and pulmonary vascular resistance; details: inhaled low dose
pulmonary hypertension = details: in vivo
[4] = co-application of a 10% CO2 concentration
[5] = drug alone, without CO2 co-application

Compound	inhibition of serotonin-induced bronchial smooth muscle contraction [2, 4]	inhibition of serotonin-induced bronchial smooth muscle contraction [2, 5]	other results
O=C=O [CO2, carbon dioxide]	–	–	effect on airways [1]: relax both central and peripheral airways
C[N+](C)(C)CCCCCC[N+](C)(C)C [hexamethonium]	67%	37%	–
nitric oxide [NO]	–	–	pulmonary vasoselectivity [3]: highly pulmonary vasoselective; reduction of transpulmonary gradient and pulmonary vascular resistance compared with sodium nitroprusside and prostacyclin ([3]; in vivo and clinical tests): as effective as sodium nitroprusside and prostacyclin; effect on pulmonary hypertension (pulmonary hypertension): reverse pulmonary hypertension
CN1[C@@H]2CC[C@H]1C[C@@H](OC(=O)C(CO)c1ccccc1)C2 (some centres unmarked) [atropine]	62%	46%	–
